The values that follow come from publication PMC12389442, “Towards a Consensus for the Analysis and Exchange of TFA as a Counterion in Synthetic Peptides and Its Influence on Membrane Permeation” (Pharmaceuticals, 2025).

The conditions of data set [1]: not told.
Protocol: (§1) To investigate the influence of TFA^− and Cl^− as counterions on the membrane permeation of synthetic peptides, a liposomal fluorescence assay was performed as previously described [37, 38]. The assay relies on the change in fluorescence of HPTS correlating to the liposomal internal pH change altered by permeation of an acidic or basic compound across the phospholipid bilayer. […] We first evaluated the impact of counterions on the permeation kinetics of the CPPs. Fitted biexponential curves and calculated log Permapp values are shown if the obtained normalized RMSE was <0.10. […] Control experiments with TFA and HCl are also shown for reference. […] To complement the CPP study, we also investigated peptides AT 1–4 in the permeation assay.
(§2) To investigate the influence of the counterions on the membrane permeability of peptides, a liposomal fluorescence assay was performed using a previously described method adapted to a plate reader [37, 38].
Data set [2] is described as follows: direct pH measurement of aqueous peptide salt solutions. Format: physicochemical. To be noted: before exchange (TFA salt), about 2–2.4 mg/mL peptide salt. The text has this: Direct pH measurements of aqueous solutions of peptides present as TFA, as well as Cl salts, were acidic in a pH range below 3 (exact values can be found in the Supporting Information). […] Strong counterions as Cl^− and TFA^− may shield the positive charges and hydrogen bond donors, facilitating permeation as a net neutral complex. The complex then dissociates in the unbuffered internal liposomal phase, into a weak base (peptide) and a strong acid (HCl or TFA), resulting in the release of protons leading to acidification and a decrease in fluorescence. This assumption would align with the concept of hydrophobic ion pairing, described to enhance the membrane permeability of charged molecules in drug delivery. Our findings confirm results of previous studies that counterions cannot be neglected and the salt form might affect the membrane permeation behavior of peptides, among other things. Given that counterions are often unreported in the literature, we herein emphasize the need for explicit consideration and clarification in peptide-based permeation assays and further functional studies.
Table S8: pH measurements of AT1-4 peptide salt in aq. solution after exchange and lyophilization
Before Conc. peptide 2.38 2.38

Data set [3] is described as follows: counterion (TFA−, Cl−, Na+) content of peptide salt by HPLC-ELSD during HCl exchange. The data set is classed as physicochemical. The method, then:
The TFA^− content in samples was quantified using three analytical methods, namely FT-IR, ^19F-NMR, and HPLC-ELSD, adapted from previous publications. The methods are described in detail in the Supplementary Materials Section S2. In short, FT-IR spectra were recorded in aqueous solution at a wavelength from 4000 cm^−1 to 600 cm^−1 (PerkinElmer Inc., Waltham, MA, USA). The absorbance maxima in the TFA^− absorbance range of 1210 to 1190 cm^−1 were determined using Python (3.10.10, https://docs.python.org/3/reference (accessed 22 April 2024)). The ^19F-NMR (Bruker Avance III 400 MHz NMR spectrometer, Bremen, Germany) measurements were performed in 10% deuterium oxide (D2O; >99.9 atom% D, Apollo Scientific, Bredbury, United Kingdom) in H2O (nanopure water, in-house water purification system ELGA Purelab, Villmergen, Switzerland) and the signal areas were determined via auto-integration. The HPLC-ELSD (VWR ELITE Lachrome Series, Dietikon, Switzerland) method was used under isocratic conditions with a mobile phase consisting of 40% 20 mM ammonium formate (≥99%, Sigma Aldrich, Buchs, Switzerland) in H2O (pH 4.0) and 60% acetonitrile (ACN; HPLC gradient grade, ≥99.9%, Sigma Aldrich, Buchs, Switzerland). Separation was achieved on an Acclaim Trinity P1 column (3 mm × 100 mm, Thermo Fisher Scientific, Sunnyvale, CA, USA) allowing for the simultaneous detection of TFA^−, Cl^−, and Na^+. Retention times were determined by single injection of analytes and quantification performed via peak area. All analytical methods were validated according to the ICH guidelines. For each analysis method, calibrators with concentrations in the corresponding quantitative range for TFA^− (additionally, Na^+ and Cl^− for HPLC-ELSD) were prepared and aliquoted for each validation day (4 days for FT-IR and ^19F-NMR, 8 days for HPLC-ELSD). Quality control (QC) samples (QC low, med, and high) were prepared independently. All aliquots were stored at 5 °C. Over a period of 7 (FT-IR and ^19F-NMR) or 21 days (HPLC-ELSD), daily regression curves were determined using the generalized least squares regression model. For the ^19F-NMR and FT-IR method, a linear model was used, and for the HPLC-ELSD method a polynomial model. Weightings of x, 1/x, and 1/x^2 were considered for the calibration curves. The accuracy was determined by comparing the established concentration of the QC sample concentration and the theoretical concentration. Bias and intra- and inter-day precision (RSDR and RSDT) were calculated according to Peters et al.. […] The limit of detection (LoD) and limit of quantification (LoQ) for the FT-IR and ^19F-NMR methods were calculated according following ICH guidelines based on the standard deviation of the response and slope. As a quadratic regression curve was determined for the HPLC-ELSD method, LoD and LoQ were determined using the signal-to-noise approach. To assess the stability of the calibration curve, the concentration of the QCs for each day was recalculated with the calibration curve established on the first day and the bias was determined by comparison with the theoretical value calculated.
For the counterion exchange of TFA^− with Cl^−, the peptide salt was dissolved in a diluted aqueous HCl solution at a concentration of 1 mg/ml. […] To evaluate the influence of the peptide sequence, counterion exchange was also performed for AT 2, AT 3, and AT 4 with the optimally determined salt concentration of 10 mM. […]

Data set [4] is described as follows: peptide integrity during counterion exchange with aq. HCl, HPLC-UV. Format: physicochemical. Here is the method: As degradation issues in aqueous acidic solutions have been reported previously, the integrity of AT 1 during counterion exchange with the different concentrations of HCl was measured with HPLC-UV. […] Similar results could be found for all other peptides under investigation (Supplementary Materials Section S3). […] Nevertheless, the stability of the peptide as well as the counterion exchange efficacy may vary, depending on the peptide sequence. Therefore, the TFA^− content as well as the purity should always be confirmed after counterion exchange.
For the counterion exchange of TFA^− with Cl^−, the peptide salt was dissolved in a diluted aqueous HCl solution at a concentration of 1 mg/ml. […] To evaluate the influence of the peptide sequence, counterion exchange was also performed for AT 2, AT 3, and AT 4 with the optimally determined salt concentration of 10 mM. […] For all peptide samples, the content of counterions was measured by FT-IR, ^19F-NMR, and HPLC-ELSD before the exchange as well as after each lyophilization cycle (Ex 0, Ex 1, Ex 2, and Ex 3). […] HPLC-ELSD samples containing 0.75 mg/mL peptide salt in H2O were measured in triplicate with an injection volume of 5 and 20 µL. The purity of the samples was monitored during the counterion exchange with a 0.25 mg/mL peptide salt solution according to the purity method described below. […]

A short description of data set [5]: liposomal fluorescence assay (HPTS) for passive membrane permeation.
Protocol: as §1, §2
The conditions of data set [6]: at the concentrations used in the liposomal assay; cited from earlier work.
The conditions of data set [7]: cited from earlier work.

In the case of `CC[C@H](C)[C@H](NC(=O)[C@H](CCCCN)NC(=O)[C@@H](NC(=O)[C@H](CCC(N)=O)NC(=O)[C@@H](N)CCCNC(=N)N)[C@@H](C)CC)C(=O)N[C@@H](Cc1c[nH]c2ccccc12)C(=O)N[C@@H](Cc1ccccc1)C(=O)N[C@@H](CCC(N)=O)C(=O)N[C@@H](CC(N)=O)C(=O)N[C@@H](CCCNC(=N)N)C(=O)N[C@@H](CCCNC(=N)N)C(=O)N[C@@H](CCSC)C(=O)N[C@@H](CCCCN)C(=O)N[C@@H](Cc1c[nH]c2ccccc12)C(=O)N[C@@H](CCCCN)C(=O)N[C@@H](CCCCN)C(N)=O` [AntP, H2N-RQIKIWFQNRRMKWKK-CONH2], in data set [1], the “influence of type of counterion on passive permeation” value is “unaffected by the type of counterion” and the “permeation kinetics / fluorescence change (qualitative)” value is “biexponential kinetics were observed”.
For the compound “H2N-DRVYIHPF-COOH (H-DRVYIHPF-OH) [AT 2, angiotensin peptide synthesized by SPPS]”, in data set [2], the “pH of peptide salt in aq. solution” value was 2.63.
“H2N-DRVYIHPFHL-COOH (H-DRVYIHPFHL-OH) [AT 1, angiotensin model peptide synthesized by SPPS]”: the “Cl− content relative to expected value based on stoichiometric exchange” value in data set [3] (10 mM HCl, single cycle) amounted to 99.0%. Also, the “TFA− content of peptide salt” value in data set [3] (after one exchange cycle with 10 and 100 mM HCl, below LoQ of all techniques) is “below 1 % (w/w)”; in data set [3] (after purification, before exchange, HPLC-ELSD), 0.333 ± 0.008 mg TFA^− per mg peptide salt; in data set [3] (control 0 mM HCl, after three exchange cycles), 0.215 ± 0.023 mg TFA^− per mg peptide salt. Besides, in data set [3] (exchanged with 10 mM HCl, after a single cycle), the “Cl− content of peptide salt” value is 0.098 mg per 1 mg peptide salt. In data set [2], the “pH of peptide salt in aq. solution” value was determined as 2.59. In addition, in data set [4] (HCl up to 100 mM), the “degradation products during counterion exchange” value is “No degradation products were observed”. Further, the “purity during counterion exchange (stability in aq. HCl)” value in data set [4] (all HCl concentrations (0–100 mM), over three exchange cycles) is listed as “above 96%”.
Regarding H2N-RVYIHPF-COOH [AT 3], the “pH of peptide salt in aq. solution” value in data set [2] turned out to be 2.63.
The same measure, in the same setting: as for H2N-VYIHPF-COOH [AT 4], the figure is 2.39.
With H-KETWWETWWTEWSQPKKKRKV-OH [Pep1], in data set [1], the “influence of type of counterion on passive permeation” value is recorded as “influence the amplitude of the permeation curve, although the overall log Permapp remained similar” and the “permeation kinetics / fluorescence change (qualitative)” value is “biexponential kinetics were observed”.
“H-LLIILRRRIRKQAHAHSK-OH [pVEC, H2N-LLIILRRRIRKQAHAHSK-COOH]”: the “passive membrane permeation (qualitative)” value in data set [5] (Cl salt) is on record as “did not detect permeation”; in data set [5] (TFA salt), “showed passive permeation”. Besides, in data set [5] (TFA salt, 50 µM peptide solution added to liposomes, outer phase pH 6.0, 28.5 °C, ± standard error of the fit, n = 3), the “Log Permapp” value was -6.913 ± 0.048 cm/s. The POPC membrane disruption entry in data set [6] was “no POPC membrane disruption was observed”. Also, the hemolytic activity result in data set [7] is listed as “general hemolytic activity is described”.
